These results are taken from patent publication US10813903B2, “Compositions comprising 15-HEPE and methods of using the same” (Afimmune Limited, priority 2013, dated 2020).

This test has as its system STAM model of Non-alcoholic Steatohepatitis. Kind of test: in vivo efficacy study of 15-OHEPA and EPA in STAM model of non-alcoholic steatohepatitis. Further details: species or system C57BL/6 mice. Particulars: for liver weight as compared to the vehicle control: FIG. 1.2; for NAFLD Activity score (NAS) as compared to the vehicle control: HE staining, FIGS. 2.1 and 2.2. From the text: The purpose of this study was to examine the effects of 15-OHEPA and EPA in the STAM model of Non-alcoholic Steatohepatitis. Pathogen-free15-day-pregnant C57BL/6 mice were obtained from Charles River Laboratories in Japan Inc. (Kanagawa, Japan). NASH was established in male mice by a single subcutaneous injection of streptozotocin (STZ) (Sigma, USA) after birth and feeding with a high fat diet (HFD; CLEA) Japan, Japan) ad libitum after 4 weeks of age (day 28±2). Mice were randomized into 5 groups of 8 mice at 5 weeks of age (day 35±2) the day before the start of treatment. During the treatment period, individual body weight was measured daily as well as clinical signs of behavior and survival. Group 1 (Vehicle): Eight NASH mice were orally administered vehicle [olive oil] in a volume of 10 mL/kg once daily from 5 to 9 weeks of age. Group 2 (15-OHEPA 50 mg/kg): Eight NASH mice were orally administered vehicle supplemented with 15-OHEPA at a dose of 50 mg/kg once daily from 5 to 9 weeks of age. Group 3 (15-OHEPA 500 mg/kg): Eight NASH mice were orally administered vehicle supplemented with 15-OHEPA at a dose of 500 mg/kg once daily from 5 to 9 weeks of age. Group 4 (EPA 500 mg/kg): Eight NASH mice were orally administered vehicle supplemented with EPA at a dose 500 mg/kg once daily from 5 to 9 weeks of age. Group 5 (positive control): Eight NASH mice were orally administered pure water supplemented with Telmisartan at a dose of 10 mg/kg once daily from 5 to 9 weeks of age. At 9 weeks of age, all mice were sacrificed and the following data was recorded; • Individual liver weight • Liver to body weight ratio Histopathological analyses of liver sections were performed using HE staining (to estimate NAFLD Activity score). For HE staining, sections were cut from paraffin blocks of liver tissue prefixed in Bouin's solution and stained with Lillie-Mayer's Hematoxylin (Muto Pure Chemicals, Japan) and eosin solution (Wako Pure Chemical Industries). NAFLD Activity score (NAS) was calculated according to the criteria of Kleiner (Kleiner D E. et al., Hepatology, 2005; 41:1313). Statistical tests were performed using Bonferroni Multiple Comparison Test. P values <0.05 were considered statistically significant.

Setting [1] is: 15-OHEPA 500 mg/kg oral once daily from 5 to 9 weeks of age.
The mark [2] stands for this setting: positive control, Telmisartan 10 mg/kg oral once daily from 5 to 9 weeks of age.

The structures appear in SMILES notation.

For `CCC=CCC(O)C=CC=CCC=CCC=CCCCC(=O)O` (centres unmarked) [15-OHEPA, 15-Hydroxy-eicosa-5,8,11,13,17-pentaenoic acid], under setting [1], the “liver weight as compared to the vehicle control” value is on record as “significant reduction” and the “NAFLD Activity score (NAS) as compared to the vehicle control” value was “significantly decreased”. For the same molecule, the “potency in the treatment of FLD relative to EPA” value (summary statement) is listed as “more potent than EPA”.

Consider `CCCc1nc2c(C)cc(-c3nc4ccccc4n3C)cc2n1Cc1ccc(-c2ccccc2C(=O)O)cc1` [telmisartan, Telmisartan, reference compound], for which, under setting [2], the “liver weight as compared to the vehicle control” value is on record as “significant reduction” and the “NAFLD Activity score (NAS) as compared to the vehicle control” value is “significantly decreased”.
